{
  "source": "patent US7605257B2",
  "about": "“Processes for preparing water-soluble polyethylene glycol conjugates of macrolide immunosuppressants” (Wyeth, priority 2006, dated 2009)",
  "origin": "cited, not measured here",
  "test_system": "various solid tumors",
  "settings": "typical IC50, inhibitor of tumor growth; read-out: IC50 against various solid tumors",
  "data": [
    {"smiles": "CO[C@H]1C[C@@H]2CC[C@@H](C)[C@@](O)(O2)C(=O)C(=O)N2CCCC[C@H]2C(=O)O[C@H]([C@H](C)C[C@@H]2CC[C@@H](O)[C@H](OC)C2)CC(=O)[C@H](C)/C=C(\\C)[C@@H](O)[C@@H](OC)C(=O)[C@H](C)C[C@H](C)/C=C/C=C/C=C/1C", "note": "[Rapamycin, rapamycin]", "values": [
      {"measurement": "IC50", "value": "< 50", "unit": "nM"}
    ]}
  ]
}
